Where a name gives a salt, the structure may show the parent alone.

Drawing on patent publication US20220151236A1, “NOVEL OXADIAZOLE COMPOUNDS FOR CONTROLLING OR PREVENTING PHYTOPATHOGENIC FUNGI” (PI INDUSTRIES LTD., priority 2019, published 2022), this text covers pest or weed control for 25 compounds.

The test system of this experiment is Phakopsora pachyrhizi. The experiment can be described thus: Phakopsora pachyrhizi Test on Soybean (preventive activity, greenhouse). It is filed as in vivo. The settings on record: preventive spray on young Soybean plants, inoculated one day after treatment, rated 3, 7, 10 and 15 days after application, read-out: Efficacy (% control), disease severity compared to the untreated check. How it is done:
Compounds were dissolved in 2% dimethyl sulfoxide/acetone and then mixed with water containing an emulsifier to a calibrated spray volume of 50 mL. This 50 mL spray solution was poured into spray bottles for further applications. To test the preventive activity of compounds, healthy young Soybean plants raised in the greenhouse were sprayed with the active compound preparation at the stated application rates inside the spray cabinets using hollow cone nozzles. One day after treatment, the plants were inoculated with a spore suspension containing 2×10^5 Phakopsora pachyrhizi conidia. The inoculated plants were then kept in a greenhouse chamber at 22-24° C. temperature and 80-90% relative humidity for disease expression. A visual assessment of the compound's performance was carried out by rating the disease severity (0-100% scale) on treated plants 3, 7, 10 and 15 days after application. Efficacy (% control) of the compounds was calculated by comparing the disease rating in the treatment with the one of the untreated control. The sprayed plants were also assessed for plant compatibility by recording symptoms like necrosis, chlorosis and stunting.
Take `O=C(NCc1cccc(Cl)c1)c1cn2ccc(-c3noc(C(F)(F)F)n3)cc2n1` [Compound 40, N-(3-chlorobenzyl)-7-(5-(trifluoromethyl)-1,2,4-oxadiazol-3-yl)imidazo[1,2-a]pyridine-2-carboxamide]: the pest or weed control at 500 ppm was no less than 70%.
Under `N#Cc1ccc(NC(=O)c2cn3cc(-c4noc(C(F)(F)F)n4)ccc3n2)cc1` [Compound 27, N-(4-cyanophenyl)-6-(5-(trifluoromethyl)-1,2,4-oxadiazol-3-yl)imidazo[1,2-a]pyridine-2-carboxamide] stands no less than 70%; under `O=C(Nc1ccncc1)c1cn2ccc(-c3noc(C(F)(F)F)n3)cc2n1` [Compound 11, N-(pyridin-4-yl)-7-(5-(trifluoromethyl)-1,2,4-oxadiazol-3-yl)imidazo[1,2-a]pyridine-2-carboxamide], no less than 70%.
Take `CNC(=O)c1cn2cc(-c3noc(C(F)(F)F)n3)ccc2n1` [Compound 21, N-methyl-6-(5-(trifluoromethyl)-1,2,4-oxadiazol-3-yl)imidazo[1,2-a]pyridine-2-carboxamide]: the pest or weed control at 500 ppm was no less than 70%.
`O=S(=O)(Cc1cn2ccc(-c3noc(C(F)(F)F)n3)cc2n1)c1ccccc1` [Compound 58, 3-(2-((phenylsulfonyl)methyl)imidazo[1,2-a]pyridin-7-yl)-5-(trifluoromethyl)-1,2,4-oxadiazole]: the pest or weed control at 500 ppm was no less than 70%.
In the case of `O=C(c1cn2cc(-c3noc(C(F)(F)F)n3)ccc2n1)N1CCOCC1` [Compound 64, morpholino(6-(5-(trifluoromethyl)-1,2,4-oxadiazol-3-yl)imidazo[1,2-a]pyridin-2-yl)methanone] it was no less than 70%; in that of `CC(C)CN(C)C(=O)c1cn2cc(-c3noc(C(F)(F)F)n3)ccc2n1` [Compound 78, N-isobutyl-N-methyl-6-(5-(trifluoromethyl)-1,2,4-oxadiazol-3-yl)imidazo[1,2-a]pyridine-2-carboxamide], no less than 70%.
For `CN(CCOc1ccccc1)C(=O)c1cn2ccc(-c3noc(C(F)(F)F)n3)cc2n1` [Compound 14, N-methyl-N-(2-phenoxyethyl)-7-(5-(trifluoromethyl)-1,2,4-oxadiazol-3-yl)imidazo[1,2-a]pyridine-2-carboxamide], the pest or weed control at 500 ppm is no less than 70%.
In the case of `COc1cccc(CNC(=O)c2cn3ccc(-c4noc(C(F)(F)F)n4)cc3n2)c1` [Compound 41, N-(3-methoxybenzyl)-7-(5-(trifluoromethyl)-1,2,4-oxadiazol-3-yl)imidazo[1,2-a]pyridine-2-carboxamide] it was no less than 70%; in that of `COC1CCN(C(=O)c2cn3cc(-c4noc(C(F)(F)F)n4)ccc3n2)C1` (stereo not shown) [Compound 68, (3-methoxypyrrolidin-1-yl)(6-(5-(trifluoromethyl)-1,2,4-oxadiazol-3-yl)imidazo[1,2-a]pyridin-2-yl)methanone], no less than 70%; in that of `COCCNC(=O)c1cn2ccc(-c3noc(C(F)(F)F)n3)cc2n1` [Compound 34, N-(2-methoxyethyl)-7-(5-(trifluoromethyl)-1,2,4-oxadiazol-3-yl)imidazo[1,2-a]pyridine-2-carboxamide], no less than 70%.
Under `Cc1ccc(NC(=O)c2cn3ccc(-c4noc(C(F)(F)F)n4)cc3n2)cc1` [Compound 3, N-(p-tolyl)-7-(5-(trifluoromethyl)-1,2,4-oxadiazol-3-yl)imidazo[1,2-a]pyridine-2-carboxamide] stands no less than 70%; under `CCOC(=O)c1cn2ccc(-c3noc(C(F)(F)F)n3)cc2n1` [Compound 45, ethyl 7-(5-(trifluoromethyl)-1,2,4-oxadiazol-3-yl)imidazo[1,2-a]pyridine-2-carboxylate hydrobromide], no less than 70%; under `O=C(NCc1ccc(Cl)cc1)c1cn2cc(-c3noc(C(F)(F)F)n3)ccc2n1` [Compound 77, N-(4-chlorobenzyl)-6-(5-(trifluoromethyl)-1,2,4-oxadiazol-3-yl)imidazo[1,2-a]pyridine-2-carboxamide], no less than 70%.
Under `O=S(=O)(Cc1cn2cc(-c3noc(C(F)(F)F)n3)ccc2n1)c1cccc(F)c1` [Compound 120, 3-(2-(((3-fluorophenyl)sulfonyl)methyl)imidazo[1,2-a]pyridin-6-yl)-5-(trifluoromethyl)-1,2,4-oxadiazole] stands no less than 70%; under `O=C(Nc1ccncc1)c1cn2cc(-c3noc(C(F)(F)F)n3)ccc2n1` [Compound 32, N-(pyridin-4-yl)-6-(5-(trifluoromethyl)-1,2,4-oxadiazol-3-yl)imidazo[1,2-a]pyridine-2-carboxamide], no less than 70%; under `O=C(NCc1ccccc1F)c1cn2ccc(-c3noc(C(F)(F)F)n3)cc2n1` [Compound 42, N-(2-fluorobenzyl)-7-(5-(trifluoromethyl)-1,2,4-oxadiazol-3-yl)imidazo[1,2-a]pyridine-2-carboxamide], no less than 70%.
As for `CN(C)C(=O)c1cn2cc(-c3noc(C(F)(F)F)n3)ccc2n1` [Compound 25, N,N-dimethyl-6-(5-(trifluoromethyl)-1,2,4-oxadiazol-3-yl)imidazo[1,2-a]pyridine-2-carboxamide], the pest or weed control at 500 ppm is no less than 70%.
Under `O=C(NCc1cn2cc(-c3noc(C(F)(F)F)n3)ccc2n1)c1ccncc1` [Compound 99, N-((6-(5-(trifluoromethyl)-1,2,4-oxadiazol-3-yl)imidazo[1,2-a]pyridin-2-yl)methyl)isonicotinamide] stands no less than 70%.
In the case of `COc1cccc(CNC(=O)c2cn3cc(-c4noc(C(F)(F)F)n4)ccc3n2)c1` [Compound 76, N-(3-methoxybenzyl)-6-(5-(trifluoromethyl)-1,2,4-oxadiazol-3-yl)imidazo[1,2-a]pyridine-2-carboxamide] it was no less than 70%.
In the case of `O=C(Nc1cccc(F)c1)c1cn2cc(-c3noc(C(F)(F)F)n3)ccc2n1` [Compound 24, N-(3-fluorophenyl)-6-(5-(trifluoromethyl)-1,2,4-oxadiazol-3-yl)imidazo[1,2-a]pyridine-2-carboxamide] it was no less than 70%; in that of `[O-][S+](Cc1cn2cc(-c3noc(C(F)(F)F)n3)ccc2n1)c1ccc(Cl)c(Cl)c1` (stereo not shown) [Compound 126, 3-(2-(((3,4-dichlorophenyl)sulfinyl)methyl)imidazo[1,2-a]pyridin-6-yl)-5-(trifluoromethyl)-1,2,4-oxadiazole], no less than 70%; in that of `COc1cccc(NC(=O)c2cn3cc(-c4noc(C(F)(F)F)n4)ccc3n2)c1` [Compound 16, N-(3-methoxyphenyl)-6-(5-(trifluoromethyl)-1,2,4-oxadiazol-3-yl)imidazo[1,2-a]pyridine-2-carboxamide], no less than 70%.
Regarding `CCCSCc1cn2cc(-c3noc(C(F)(F)F)n3)ccc2n1` [Compound 107, 3-(2-((propylthio)methyl)imidazo[1,2-a]pyridin-6-yl)-5-(trifluoromethyl)-1,2,4-oxadiazole], the pest or weed control at 500 ppm is no less than 70%.
With `N=S(=O)(Cc1cn2ccc(-c3noc(C(F)(F)F)n3)cc2n1)c1ccc(Cl)cc1` (stereo not shown) [Compound 166, (4-chlorophenyl)(imino)((7-(5-(trifluoromethyl)-1,2,4-oxadiazol-3-yl)imidazo[1,2-a]pyridin-2-yl)methyl)-λ^6-sulfanone], the pest or weed control at 500 ppm was no less than 70%.
